Measurements published in patent US9801738B2, “Liquid cast biodegradable arterial stent” (Northwestern University, priority 2010, dated 2017).

What was measured:
[1] = cited from earlier work
[2] = test system: neointimal hyperplasia; test: rat carotid artery injury model, inhibition of neointimal hyperplasia by NO donors; format: in vivo
Method: Using the standard rat carotid artery injury model, the efficacy of two different diazeniumdiolates with markedly different half-lives at inhibiting neointimal hyperplasia were evaluated. […] The two different NO donors investigated were: 1-[2-(carboxylato)pyrrolidin-1-yl]diazen-1-ium-1,2-diolate (PROLI/NO), a short half-life donor, and diazeniumdiolated poly(acrylonitrile) (PAN/NO), a long half-life donor.
To date, it remains unknown how much NO is required in the vasculature to inhibit the subsequent neointimal hyperplasia from developing in humans. In order to estimate how much NO is required in the vasculature to inhibit the subsequent neointimal hyperplasia from developing in humans, the observed NO release may be compared to: 1) data from animal experiments, and 2) known endogenous NO production in humans. […] Because diazeniumdiolates release 2 moles of NO per mole of compound upon reaction with hydrogen ions, it follows that 20 mg of PROLI/NO releases 160 μmoles of NO. Thus, the current formulation that releases 112 μmole/gm (FIG. 10) is similar to what has been used in rat models. An alternative method of estimating whether the current NO-releasing material will produce sufficient NO is to compare the material against known rates of endogenous NO release. […]

SMILES | half-life [1] | inhibition of neointimal hyperplasia ([2]; applied to the periadventitial aspect of an injured artery, 20 mg in rodents) | inhibition of intimal area versus injury alone ([2]; two weeks after injury, rat carotid artery injury model, p<0.05)
NCCN(CCN)/[N+]([O-])=N/O [DETA/NO] | 20 h |  | 
O=C(O)C1CCCN1[N+]([O-])=NO (stereo not drawn) [PROLI/NO, 1-[2-(carboxylato)pyrrolidin-1-yl]diazen-1-ium-1,2-diolate] |  | 91% | 91.2%
